Measured values published in ChEMBL document CHEMBL2150878, “Discovery of an Orally Available, Brain Penetrant BACE1 Inhibitor that Affords Robust CNS Aβ Reduction” (ACS Med Chem Lett, 2012).
Converted amounts (≈) assume the structure as drawn.

Columns and labels:
Rattus norvegicus [1] = test: AUC (0 to 6 hrs) in rat at 10 mg/kg, po; assay type: ADME, organism-based, Plasma; set-up: time < 6 hr, dose 10 mg/kg, route oral; conditions: in vivo
[2] = Intrinsic clearance in rat hepatocytes assessed per 10^6 cells at 1 uM up to 180 mins; assay type: ADME, cell-based, Hepatocyte; conditions: read-out: CLH
Nucleic Acid = test: Ratio of drug level in brain to plasma in Sprague-Dawley rat at 3 mg/kg, po after 3 hrs; assay type: ADME, organism-based; set-up: dose 3 mg/kg, route oral
[3] = Lipophilicity, log D of the compound; assay type: physicochemical; conditions: octanol/water
[4] = Solubility of the compound at pH 7.4; assay type: physicochemical; conditions: buffer
Caco-2 = test: Apparent permeability of the compound in human Caco2 cells; assay type: ADME, cell-based
Rattus norvegicus [5] = test: Oral bioavailability in Sprague-Dawley rat at 3 mg/kg; assay type: ADME, organism-based; conditions: in vivo
Rattus norvegicus [6] = test: Terminal half life in Sprague-Dawley rat at 3 mg/kg, iv; assay type: ADME, organism-based; set-up: dose 3 mg/kg, route intravenous; conditions: in vivo
[7] = Intrinsic clearance in human hepatocytes assessed per 10^6 cells at 1 uM up to 180 mins; assay type: ADME, cell-based, Hepatocyte; conditions: read-out: CLH
[8] = Dissociation constant, pKa of the compound; assay type: physicochemical

Q: With COc1cccc(-c2cccc([C@]3(C)CC(=O)N(C)C(=N)N3)c2)c1 as the compound, how does the AUC (Rattus norvegicus [1]) read?
A: The AUC was < 1 µM·h.

Q: With CN1C(=N)N[C@](C)(c2cccc(-c3cccc(C#N)c3)c2)CC1=O as the compound, how does the AUC (Rattus norvegicus [1]) read?
A: Its AUC is 8.6 µM·h.

Q: For CN1C(=N)N[C@](C)(c2cccc(-c3cccnc3)c2)CC1=O, which AUC (Rattus norvegicus [1]) is on record?
A: The AUC was < 1 µM·h.

Q: Which results are given for CC#Cc1cncc(-c2cc(Cl)c([C@]3(C)CC(=O)N(C)C(=N)N3)s2)c1?
A: hepatocyte CLint at 1 µM [2]: 4.9 µL/min/1e6 cells; BPR (Nucleic Acid): 3; logD [3]: 1.8; solubility [4]: 200 µM (≈ 74.6 µg/mL); Papp (Caco-2): 15.3 ×10⁻⁶ cm/s; F (Rattus norvegicus [5]): 69%; beta t1/2 (Rattus norvegicus [6]): 2.8 h; hepatocyte CLint at 1 µM [7]: 2.7 µL/min/1e6 cells; pKa [8]: 7.5
